Data on 9 molecules can be found in patent US4605413A, “Stimulation of chemotaxis by chemotactic peptides” (The University of Alabama at Birmingham, priority 1983, dated 1986).

What all share (type): cell-based
For one assay, the system named is Monocytes. The assay is described as follows: Desensitization of monocyte chemotaxis by pre-exposure to elastin peptides. Particulars: for % CONTROL: desensitized vs control; for Monocyte chemotaxis, CONTROL: no pre-exposure; for Monocyte chemotaxis, CONTROL / Monocyte chemotaxis, DESENSITIZED: mean of 15; for Monocyte chemotaxis, DESENSITIZED: pre-exposed to elastin peptides; for effect of pre-exposure to elastin-derived peptide fragments on monocyte chemotactic response: monocytes pre-exposed to elastin-derived peptide fragments, qualitative.

Another assay has as its system fibroblasts. Kind of assay: Fibroblast chemotaxis in multi-blind well apparatus. To be noted: for chemotactic activity of isolated hexapeptides: qualitative; for Fibroblast Migration, Net Cells/HPF ± SEM: N = 15; for chemotactic activity in presence of antibody to elastin: polyclonal antibody to elastin present, FIG. 4. As to the method:
(§1) The chemotactic response of fibroblasts to a hexapeptide of the invention was measured using the techniques described in Senior et al, J. Clin. Invest., 70, 614-618 (1982), which is herein incorporated by reference. Although the actual conditions used may vary slightly, the following generally describes the experimental conditions.
(§2) Chemotaxis was determined in a multi-blind well apparatus using a polycarbonate membrane with 8-μm pores on top of a cellulose nitrate membrane having 0.45-μm pores to separate each well into upper and lower compartments. The lower compartment was filled with 240 μl of solution to be assayed (or control medium) and then covered with the membranes. In the upper compartment was placed 350 μl of cell suspension containing 1.2×10^5 cells/ml.
(§3) After both compartments of the wells were filled, the chemotaxis apparatus was placed in a humidified incubator at 37° C. in an atmosphere of 5% CO2 -95% air for several hours. The apparatus was then disassembled, and each membrane pair was removed and stained with hematoxylin. Cell migration was determined under high dry magnification (×400) by counting the cells that had moved to the interface between the two membranes and those on the lower membrane. Several high power fields (H.P.F.) were counted for each membrane. Multiple determinations of each experiment were conducted, and the results pooled. Cell migration is expressed as the net number of cells per H.P.F.; i.e., the number of cells per H.P.F. minus the number of cells per H.P.F. that migrated in response to control medium.

For assay [1], the system named is young fibroblasts (not yet synthesizing elastin). Kind of assay: Chemotaxis of young (immature) fibroblasts before and after induced differentiation. To be noted: FIG. 2. How it is done:
as §1, §2
as §3, with “The apparatus was then disassembled, and each membrane pair was removed and stained with hematoxylin.” left out, “Multiple determinations of each experiment were conducted, and the results pooled.” left out

Where [2] appears, read: FIG. 1, dose response of fibroblasts.
The mark [3] stands for this setting: chemoattractant at concentration for maximum chemotaxis.

No end group written: not given here.

For `CSCC[C@H](NC=O)C(=O)N[C@@H](CC(C)C)C(=O)N[C@@H](Cc1ccccc1)C(=O)O` [FMLP, formylmethionylleucylphenylalanine, reference compound], in the assay on Monocytes (chemoattractant 10^-8 M), the “% CONTROL” value is on record as 77%; the “Monocyte chemotaxis, CONTROL” value was 100 Cells per high power field; the “Monocyte chemotaxis, DESENSITIZED” value is recorded as 77 Cells per high power field. Further, in the assay on Monocytes (chemoattractant 10^-9 M), the “% CONTROL” value was 100%; the “Monocyte chemotaxis, CONTROL” value was 45 Cells per high power field; the “Monocyte chemotaxis, DESENSITIZED” value was 45 Cells per high power field. Further, in the assay with Monocytes, the “effect of pre-exposure to elastin-derived peptide fragments on monocyte chemotactic response” value (“effect of pre-exposure” below) was “pre-exposure has no effect on response”.
As for H-APGVGV-OH [H--APGVGV--OH], in the assay on fibroblasts, the “chemotactic activity of isolated hexapeptides” value is “chemotactic activity is also seen”.
The same measure, in the same setting: the same measure for H-GVAPGV-OH [H--GVAPGV--OH]: “chemotactic activity is also seen”.
Still for that read-out and setting: the result for H-GVGVAP-OH [H--GVGVAP--OH] reads “chemotactic activity is also seen”.
For the molecule H-PGVGVA-OH [H--PGVGVA--OH], the “chemotactic activity of isolated hexapeptides” value in the assay on fibroblasts is “chemotactic activity is also seen”.
Same read-out and setting: the result for H-VAPGVG-OH [H--VAPGVG--OH] reads “chemotactic activity is also seen”.
Take “VGVAPG [VGVAPG, VAL--GLY--VAL--ALA--PRO--GLY]”: the “% CONTROL” value in the assay with Monocytes (chemoattractant 10^-8 M) and with Monocytes (chemoattractant 10^-9 M) was 0% throughout. Besides, the “Monocyte chemotaxis, CONTROL” value in the assay on Monocytes (chemoattractant 10^-8 M) is 70 Cells per high power field; with Monocytes (chemoattractant 10^-9 M), 42 Cells per high power field. For the same molecule, the “Monocyte chemotaxis, DESENSITIZED” value with Monocytes (chemoattractant 10^-8 M) was -4 Cells per high power field; in the assay on Monocytes (chemoattractant 10^-9 M) it was -2 Cells per high power field. In addition, the “effect of pre-exposure” value in the assay with Monocytes is “no longer show chemotaxis”. Further, the “concentration of greatest chemotactic activity” value in the assay on fibroblasts (setting [2]) was 10^-9 M. Moreover, the “concentrations at which chemotactic response was seen” value with fibroblasts (setting [2]) was “higher than 10^-11 M”. The “nature of fibroblast response (chemotaxis vs random movement)” value with fibroblasts (Table 1 gradient analysis) was “chemotaxis and not simply stimulation of random movement”. Further, the “Fibroblast Migration, Net Cells/HPF ± SEM” value is listed as -2 ± 0.5 Net Cells/HPF in the assay on fibroblasts (VGVAPG lower compartment 0, upper compartment 10^-8 M); 0 ± 0.7 Net Cells/HPF in the assay with fibroblasts (VGVAPG lower compartment 0, upper compartment 10^-9 M); 1 ± 0.6 Net Cells/HPF with fibroblasts (VGVAPG lower compartment 0, upper compartment 10^-10 M); 27 ± 1.7 Net Cells/HPF with fibroblasts (VGVAPG lower compartment 10^-8 M, upper compartment 0); 1 ± 0.7 Net Cells/HPF in the assay on fibroblasts (VGVAPG lower compartment 10^-8 M, upper compartment 10^-8 M); 3 ± 0.6 Net Cells/HPF with fibroblasts (VGVAPG lower compartment 10^-8 M, upper compartment 10^-9 M). Further, the “Fibroblast Migration, Net Cells/HPF ± SEM” value amounted to 13 ± 1.8 Net Cells/HPF with fibroblasts (VGVAPG lower compartment 10^-8 M, upper compartment 10^-10 M); 15 ± 1.7 Net Cells/HPF in the assay on fibroblasts (VGVAPG lower compartment 10^-9 M, upper compartment 0); 0 ± 0.6 Net Cells/HPF in the assay with fibroblasts (VGVAPG lower compartment 10^-9 M, upper compartment 10^-8 M); 0 ± 0.4 Net Cells/HPF with fibroblasts (VGVAPG lower compartment 10^-9 M, upper compartment 10^-9 M); 7 ± 1.3 Net Cells/HPF in the assay on fibroblasts (VGVAPG lower compartment 10^-9 M, upper compartment 10^-10 M); 4 ± 1.0 Net Cells/HPF with fibroblasts (VGVAPG lower compartment 10^-10 M, upper compartment 0). In addition, the “Fibroblast Migration, Net Cells/HPF ± SEM” value is reported as 1 ± 1.0 Net Cells/HPF in the assay on fibroblasts (VGVAPG lower compartment 10^-10 M, upper compartment 10^-8 M); -3 ± 0.4 Net Cells/HPF in the assay with fibroblasts (VGVAPG lower compartment 10^-10 M, upper compartment 10^-9 M); 2 ± 0.7 Net Cells/HPF with fibroblasts (VGVAPG lower compartment 10^-10 M, upper compartment 10^-10 M). The “chemotactic activity of isolated hexapeptides” value in the assay with fibroblasts is given as “most chemotactic of the isolated hexapeptides”. In addition, the “chemotactic activity in presence of antibody to elastin” value in the assay on fibroblasts is recorded as “blocks the chemotactic activity”. Also, the “migration of young fibroblasts” value in assay [1] is recorded as “do not migrate”.
Consider platelet-derived growth factor [PDGF], for which the “Fibroblast Migration, Positive Control” value in the assay with fibroblasts (PDGF, 10^-9 M) is 31 Cells/HPF. The “chemotactic activity in presence of antibody to elastin” value in the assay with fibroblasts was “has no effect on the chemotactic activity”. Further, the “migration of young fibroblasts” value in assay [1] was “have the capacity to migrate”.

B1: C5A: activity derived from the fifth component of complement (C5a) (protein, UniProt P01031 678-751, looked up)
C5a anaphylatoxin: TLQKKIEEIAAKYKHSVVKKCCYDGACVNNDETCEQRAARISLGPRCIKAFTECCVVASQLRANISHKDMQLGR
modifications: C5a anaphylatoxin
Consider B1, for which, in the assay with Monocytes (setting [3]), the “% CONTROL” value is 100%; the “Monocyte chemotaxis, CONTROL” value was 102 Cells per high power field; the “Monocyte chemotaxis, DESENSITIZED” value is reported as 102 Cells per high power field. Also, the “effect of pre-exposure” value in the assay on Monocytes is “pre-exposure has no effect on response”.
